The values below come from ChEMBL document CHEMBL1201862, “PubChem BioAssay data set” (2004).

Some test systems named below: ACHN; CCRF-CEM; COLO 205; DU-145; EKVX; HL-60; MCF7; MDA-MB-435; NCI-H226; NCI/ADR-RES; OVCAR-5; RPMI-8226; SK-MEL-2; SK-OV-3; SN12C; SNB-19; SR; SW-620; T47D; UO-31.
Holding throughout (assay): NCI anticancer screen, dose series, 48 h

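Method: 48-hour compound exposure of cells in 96-well plates, five concentrations, linear interpolation of endpoints. GI50 marks 50% less growth.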 Activity calls are given as the source filed them. No stated cut-off is given here; in the data, active = GI50 up to about 1.1 µM and inactive = higher.

For the compound `COc1ccc(P2(=S)SP(=S)(c3ccc(Cl)cc3)S2)cc1` (stereo not given), the GI50 in the assay on ACHN, in the assay on CCRF-CEM, with COLO 205, in the assay with DU-145, with EKVX and in the assay on HL-60 was > 100 µM (inactive) in each case. Also, the GI50 in the assay on MCF7, in the assay with MDA-MB-435, with NCI-H226, in the assay on NCI/ADR-RES, in the assay with OVCAR-5 and with RPMI-8226 was > 100 µM (inactive) each time. The GI50 with SK-MEL-2, in the assay with SK-OV-3, in the assay with SN12C, in the assay on SNB-19, in the assay on SR and in the assay on SW-620 was > 100 µM (inactive) each time. The GI50 in the assay with T47D and in the assay with UO-31 was > 100 µM (inactive) throughout.

Turning to `O=C1N/C(=N\C2CCCCC2)C2(CCN(CCCC3(c4ccc(F)cc4)OCCO3)CC2)N1c1ccccc1`, the GI50 is 14.8 µM (inactive) with ACHN; 29 µM (inactive) with CCRF-CEM; 18.5 µM (inactive) in the assay with COLO 205; 17 µM (inactive) in the assay with DU-145; 16.8 µM (inactive) in the assay on EKVX; 11.7 µM (inactive) with HL-60. Moreover, the GI50 in the assay with MCF7 is 21.2 µM (inactive); with MDA-MB-435, 19.1 µM (inactive); in the assay on NCI-H226, 23.1 µM (inactive); in the assay on NCI/ADR-RES, 24.3 µM (inactive); in the assay on OVCAR-5 it was 16.7 µM (inactive); with RPMI-8226 it was 23 µM (inactive). Besides, the GI50 with SK-MEL-2 was 16 µM (inactive); in the assay on SK-OV-3, 21 µM (inactive); with SN12C, 20.4 µM (inactive); in the assay on SNB-19, 18.5 µM (inactive); with SR, 13.9 µM (inactive); in the assay on SW-620 it was 21.2 µM (inactive). The GI50 with T47D was 17 µM (inactive); in the assay on UO-31 it was 12.6 µM (inactive).

As for `COc1c(Cl)c(=O)oc2ccc(Cl)cc12`, the GI50 in the assay with ACHN is > 100 µM (inactive); in the assay on CCRF-CEM, > 100 µM (inactive); in the assay on COLO 205, > 100 µM (inactive); with DU-145, > 100 µM (inactive); in the assay with EKVX it was 81.7 µM (inactive); in the assay on HL-60 it was > 100 µM (inactive). The GI50 with MCF7, with MDA-MB-435, in the assay on NCI-H226, in the assay on NCI/ADR-RES, in the assay with OVCAR-5 and in the assay with RPMI-8226 was > 100 µM (inactive) in each case. Further, the GI50 in the assay on SK-MEL-2, in the assay with SK-OV-3, in the assay with SN12C, with SNB-19, with SR and in the assay with SW-620 was > 100 µM (inactive) throughout. Besides, the GI50 with T47D and with UO-31 was > 100 µM (inactive) each time.

`COC1CC(OC2C(C)OC(OC3C(C)OC(OC4C(C)OC(O[C@H]5CC[C@@]6(C)C(=CC[C@]7(O)[C@@H]6C[C@@H](OC(=O)/C=C/c6ccccc6)[C@@]6(C)[C@]7(O)CC[C@@]6(O)C(C)=O)C5)CC4OC)CC3OC)CC2OC)OC(C)C1O` (stereo not given in full): the GI50 is > 12.5 µM (inactive) in the assay on ACHN; > 12.5 µM (inactive) in the assay with CCRF-CEM; > 12.5 µM (inactive) in the assay on COLO 205; > 12.5 µM (inactive) with DU-145; > 12.5 µM (inactive) in the assay with EKVX; 6.75 µM (inactive) in the assay on HL-60. In addition, the GI50 with MCF7 is > 12.5 µM (inactive); in the assay with MDA-MB-435, > 12.5 µM (inactive); in the assay on NCI-H226, > 12.5 µM (inactive); with NCI/ADR-RES it was > 12.5 µM (inactive); in the assay on OVCAR-5, > 12.5 µM (inactive); with RPMI-8226, 5.98 µM (inactive). The GI50 in the assay on SK-MEL-2, with SK-OV-3, with SN12C, in the assay with SNB-19, in the assay on SR and with SW-620 was > 12.5 µM (inactive) throughout. Moreover, the GI50 with T47D was > 12.5 µM (inactive); in the assay with UO-31, 3.11 µM (inactive).

On to `O=S(=O)(CC#CCS(=O)(=O)c1ccccc1)c1ccccc1`, for which the GI50 in the assay with ACHN is 1.79 µM (inactive); in the assay with CCRF-CEM, 0.0982 µM (active); in the assay on COLO 205, 1.95 µM (inactive); in the assay with DU-145, 4.91 µM (inactive); in the assay on EKVX, 5.09 µM (inactive); in the assay with HL-60, 3.1 µM (inactive). Moreover, the GI50 was 1.99 µM (inactive) in the assay with MCF7; 1.72 µM (inactive) in the assay with MDA-MB-435; 14.6 µM (inactive) with NCI-H226; 3.72 µM (inactive) with NCI/ADR-RES; 4.63 µM (inactive) in the assay with OVCAR-5; 1.23 µM (inactive) in the assay with RPMI-8226. Moreover, the GI50 with SK-MEL-2 is 5.69 µM (inactive); in the assay on SK-OV-3 it was 13.4 µM (inactive); with SN12C, 4.28 µM (inactive); in the assay with SNB-19, 16.3 µM (inactive); in the assay with SR, 2.66 µM (inactive); in the assay with SW-620 it was 0.891 µM (active). Moreover, the GI50 with T47D is 1.95 µM (inactive); with UO-31, 1.42 µM (inactive).

Take `CC(=O)Nc1ccc2c3c(cc(O)c2c1)N(C(=O)CCCC(=O)N1CC(CCl)c2c1cc(O)c1cc(NC(C)=O)ccc21)CC3CCl` (stereo not given): the GI50 is < 0.01 µM (active) in the assay on ACHN; < 0.01 µM (active) in the assay with CCRF-CEM; 0.0154 µM (active) with COLO 205; < 0.01 µM (active) in the assay with DU-145; 0.0423 µM (active) in the assay on EKVX; < 0.01 µM (active) with HL-60. Also, the GI50 with MCF7 was < 0.01 µM (active); in the assay with MDA-MB-435, < 0.01 µM (active); in the assay on NCI-H226, < 0.01 µM (active); in the assay with NCI/ADR-RES, 0.0828 µM (active); in the assay with OVCAR-5, 0.0198 µM (active); in the assay with RPMI-8226 it was 0.0109 µM (active). For the same compound, the GI50 in the assay on SK-MEL-2 was < 0.01 µM (active); in the assay with SK-OV-3, < 0.011 µM (active); in the assay on SN12C, < 0.01 µM (active); in the assay on SNB-19, < 0.01 µM (active); in the assay on SR it was < 0.01 µM (active); in the assay on SW-620 it was 0.0392 µM (active). For the same compound, the GI50 with T47D is < 0.01 µM (active); with UO-31, < 0.0166 µM (active).

In the case of `C(=C\c1ccccc1)/COc1ccccc1C(N1CCOCC1)n1nc2ccccc2n1` (stereo not given), the GI50 was 7.98 µM (inactive) with ACHN; 1.88 µM (inactive) in the assay with CCRF-CEM; 19.9 µM (inactive) in the assay on COLO 205; 5.85 µM (inactive) with DU-145; 21.2 µM (inactive) with EKVX; 0.352 µM (active) in the assay with HL-60. Further, the GI50 in the assay on MCF7 was 1.4 µM (inactive); in the assay on MDA-MB-435, 0.365 µM (active); in the assay with NCI-H226, 7.28 µM (inactive); in the assay on NCI/ADR-RES, 3.69 µM (inactive); in the assay with OVCAR-5, 14.1 µM (inactive); with RPMI-8226, 2.92 µM (inactive). The GI50 with SK-MEL-2 is 7.23 µM (inactive); in the assay on SK-OV-3 it was 32.4 µM (inactive); in the assay with SN12C, 5.6 µM (inactive); in the assay on SNB-19 it was 19.2 µM (inactive); in the assay on SR, 1.07 µM (active); in the assay with SW-620 it was 4.28 µM (inactive). Also, the GI50 in the assay with T47D was 10.7 µM (inactive); with UO-31, 9.86 µM (inactive).

Regarding `N#Cc1cc2cc3c4c(c2oc1=O)CCCN4CCC3`, the GI50 in the assay on ACHN was > 100 µM (inactive); in the assay with CCRF-CEM, > 100 µM (inactive); in the assay with COLO 205, > 100 µM (inactive); with DU-145, > 100 µM (inactive); in the assay with EKVX, 5.02 µM (inactive); in the assay with HL-60 it was > 100 µM (inactive). The GI50 with MCF7, with MDA-MB-435, in the assay on NCI-H226, with NCI/ADR-RES, in the assay on OVCAR-5 and in the assay with RPMI-8226 was > 100 µM (inactive) each time. In addition, the GI50 in the assay on SK-MEL-2, in the assay on SK-OV-3, in the assay with SN12C, with SNB-19, in the assay on SR and in the assay on SW-620 was > 100 µM (inactive) in each case. For the same compound, the GI50 in the assay with T47D and in the assay with UO-31 was > 100 µM (inactive) in each case.

`CC[C@@]1(O)C(=O)OCc2c1cc1n(c2=O)Cc2c-1nc1ccccc1c2/C=N\NC(=O)C(N)CCSC` (stereo not given in full): the GI50 is < 0.01 µM (active) in the assay on ACHN; < 0.01 µM (active) in the assay with CCRF-CEM; 1.24 µM (inactive) in the assay on COLO 205; 0.0175 µM (active) in the assay with DU-145; 0.668 µM (active) with EKVX; < 0.01 µM (active) in the assay on HL-60. Also, the GI50 was < 0.01 µM (active) in the assay with MCF7; 0.108 µM (active) in the assay on MDA-MB-435; < 0.016 µM (active) in the assay with NCI-H226; 0.0395 µM (active) in the assay with NCI/ADR-RES; 0.774 µM (active) in the assay with OVCAR-5; < 0.0282 µM (active) in the assay with RPMI-8226. For the same compound, the GI50 in the assay with SK-MEL-2 is 0.713 µM (active); in the assay with SK-OV-3, < 0.0127 µM (active); in the assay on SN12C, < 0.01 µM (active); in the assay with SNB-19, < 0.01 µM (active); with SR it was < 0.01 µM (active); with SW-620, 0.0883 µM (active). The GI50 in the assay with T47D was < 0.01 µM (active); in the assay on UO-31, < 0.0104 µM (active).

On to `NC1C/C(=N\O)c2c(I)sc(I)c21` (stereo not given), for which the GI50 with ACHN is 18.7 µM (inactive); in the assay on CCRF-CEM, 2.44 µM (inactive); in the assay on COLO 205, 19.6 µM (inactive); with DU-145, 17.4 µM (inactive); with EKVX, 19 µM (inactive); in the assay on HL-60, 4.23 µM (inactive). For the same compound, the GI50 in the assay on MCF7 is 7.31 µM (inactive); with MDA-MB-435, 13.8 µM (inactive); in the assay with NCI-H226 it was 18.4 µM (inactive); in the assay on NCI/ADR-RES, 18.4 µM (inactive); in the assay with OVCAR-5, 15.7 µM (inactive); with RPMI-8226 it was 6.7 µM (inactive). For the same compound, the GI50 with SK-MEL-2 is 17.5 µM (inactive); with SK-OV-3 it was 16.4 µM (inactive); in the assay with SN12C it was 20.7 µM (inactive); in the assay on SNB-19, 17.2 µM (inactive); in the assay on SR, 4.8 µM (inactive); in the assay with SW-620, 9.82 µM (inactive). Besides, the GI50 was 23.2 µM (inactive) in the assay on T47D and 13 µM (inactive) with UO-31.
